Assay results: patent US20250325717A1, “ANTI-NUCLEOPHOSMIN 1 ANTIBODY AND ANTIBODY CONJUGATE COMBINATION THERAPIES” (The Children's Medical Center Corporation, priority 2022, published 2025)

Experiments:
[1] = test system: NPM1 on the surface of OCI-AML3 cells; test: Effect of chemotherapeutics on anti-NPM1 antibody binding to OCI-AML3 cell surface; type: cell-based, human
OCI-AML3 cells = test: Low dose chemotherapeutics: induction of cell surface NPM1 on OCI-AML3 cells; type: cell-based, human; details: daunorubicin 10 nanomolar (nm), venetoclax 40 nm; for NPM1 on the cell surface: 48 hrs
Method: To determine whether low doses of chemotherapeutic agents, daunorubicin and venetoclax, induce cell surface NPM1, OCI-AML3 cells were exposed to either control or a low dose of a chemotherapeutic treatment. OCI-AML3 cells are resistant to BLC2i. Daunorubicin was administered at 10 nanomolar (nm) and venetoclax was administered at 40 nm. Administration of daunorubicin increased NPM1 on the cell surface at 48 hrs and maintained higher expression for at least 9 days. Administration of venetoclax and separately 5-Aza increased NPM1 at 48 hrs and maintained higher expression for at least 7 days (FIG. 32).

[2] = test system: Normal hematopoietic precursor cell line HPC7; test: Low dose chemotherapeutics: cell surface NPM1 on non-transformed HPC7 cells; type: cell-based; details: daunorubicin 10 nM, venetoclax 40 nM, 48 and 72 hours
Method: (§1) The ability of low doses of chemotherapeutic agents, daunorubicin and venetoclax, to induce cell surface NPM1 on non-transformed cells was tested. Normal hematopoietic precursor cell line HPC7 and normal myeloid progenitor line HOXB8 were exposed to either control or a low dose of a chemotherapeutic treatment. Doses of daunorubicin and venetoclax were administered at 10 nanomolar (nM) and 40 nM, respectively. The results of the antibody binding measured by flow cytometry show no change in the low dose chemotherapeutic compared to controls (FIG. 33).

[3] = test system: normal myeloid progenitor line HOXB8; test: Low dose chemotherapeutics: cell surface NPM1 on non-transformed HOXB8 cells; type: cell-based; details: daunorubicin 10 nM, venetoclax 40 nM, 48 and 72 hours
Method: as §1

[4] = test system: surface localized NPM1 on primary murine NPM1c AML cells; test: FACS binding to primary murine NPM1c AML cells; type: cell-based
Excerpt: (§2) Given that a variety of murine and human leukemia cell lines express cell surface WT and/or mutant NPM1, it was subsequently assessed whether the isolated antibodies could also bind to the surface of these cells. […] These antibodies could further be used in other applications, including, for example, diagnostic agents by instead conjugating the antibodies with an imaging agent, which can in turn be used to locate and measure the relative abundance of cancer cells in a patient.

[5] = molecular target: T1, surface localized NPM1 on primary murine MLL-rearranged AML cells (Mus musculus, UniProt Q61937); test: FACS binding to primary murine MLL-rearranged AML cells; type: cell-based
T1 construct: endogenous in cells; host or cells: primary murine MLL-rearranged AML cells
Excerpt: as §2

[6] = test system: NPM1 on human patient derived xenograft (PDX) cells; test: FACS binding to human PDX cells transplanted into a mouse model; type: cell-based
Excerpt: as §2

[7] = test system: host murine bone marrow cells; test: FACS binding to host murine bone marrow cells of PDX mice; type: cell-based; details: host bone marrow of PDX mouse model
Excerpt: as §2

[8] = molecular target: T2, human nucleophosmin 1 (NPM1) (human, UniProt P06748 1-294); test: FACS, human AML PDX cells (PDX-1, PDX-3, PDX-4)
T2 construct: In the blots it is NPM1 from lysates or membrane fractions, not on cells; also called WT NPM1; wild-type NPM1

murine NPM1 = molecular target: T3, murine NPM1 (murine, UniProt Q61937 1-292); test: FACS, primary murine MLL-r AML cells
T3 construct: also called NPM1 on primary murine MLL-rearranged (MLL-r) AML cells; NPM1 on MLL-AF9/Flt3-ITD AML cells
T3 sequence (Q61937 whole entry): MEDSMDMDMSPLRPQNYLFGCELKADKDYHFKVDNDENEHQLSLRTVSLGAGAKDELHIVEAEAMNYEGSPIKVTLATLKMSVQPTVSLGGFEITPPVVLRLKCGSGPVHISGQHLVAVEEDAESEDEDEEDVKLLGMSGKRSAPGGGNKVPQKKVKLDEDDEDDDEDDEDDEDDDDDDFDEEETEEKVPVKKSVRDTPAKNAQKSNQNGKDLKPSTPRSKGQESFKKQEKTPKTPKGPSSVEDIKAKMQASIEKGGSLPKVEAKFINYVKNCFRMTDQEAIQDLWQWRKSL

T2 sequence (P06748 whole entry): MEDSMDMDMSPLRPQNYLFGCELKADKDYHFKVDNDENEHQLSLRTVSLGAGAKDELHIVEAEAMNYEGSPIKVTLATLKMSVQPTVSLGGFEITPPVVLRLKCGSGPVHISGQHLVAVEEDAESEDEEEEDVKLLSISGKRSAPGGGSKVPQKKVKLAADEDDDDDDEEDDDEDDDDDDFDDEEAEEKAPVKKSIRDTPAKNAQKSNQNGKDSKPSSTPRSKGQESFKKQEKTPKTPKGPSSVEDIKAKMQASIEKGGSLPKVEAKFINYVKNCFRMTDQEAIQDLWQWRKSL
T1 sequence (Q61937 whole entry): as the sequence (Q61937 whole entry) above

For `Nc1ncn([C@@H]2O[C@H](CO)[C@@H](O)[C@H]2O)c(=O)n1` [5-azacytidine], the “binding of anti-NPM1 antibodies to NPM1 on the surface of OCI-AML3 cells” value ([1]; 40 nM 5-azacytidine) was “The same effect was observed”, the “binding between the isolated anti-mutant NPM1 and OCI-AML3 cells” value ([1]; after only 24 hours of treatment with 5-Aza) was “substantially enhanced” and the “NPM1 on the cell surface” value (OCI-AML3 cells) was “increased”.

In the case of `COc1cccc2c1C(=O)c1c(O)c3c(c(O)c1C2=O)C[C@@](O)(C(C)=O)C[C@@H]3O[C@H]1C[C@H](N)[C@H](O)[C@H](C)O1` [daunorubicin], the “antibody binding (cell surface NPM1) compared to controls” value [2] is reported as “no change”, the “binding between the isolated anti-WT NPM1 and anti-mutant NPM1 antibody and NPM1 on the surface of OCI-AML3 cells” value ([1]; 10 nM daunorubicin or 40 nM venetoclax) is reported as “enhanced binding” and the “binding of anti-NPM1 antibody (Merck/Sigma anti-B23 #B0556) to cells” value ([1]; 8 days post-treatment, 10 nM daunorubicin or 40 nM venetoclax) is reported as “substantially enhanced”. The “binding of anti-NPM1 antibody (Merck/Sigma anti-B23 #B0556) to cells” value ([1]; after 48 hours of treatment, 10 nM daunorubicin or 40 nM venetoclax) was “enhanced”, the “antibody binding (cell surface NPM1) compared to controls” value [3] was “no change” and the “NPM1 on the cell surface” value (OCI-AML3 cells) was “increased”. For the same molecule, the “time for which higher NPM1 expression was maintained” value (OCI-AML3 cells) was “at least 9 days”.

B1: Ab1 (antibody)
heavy: EVQLQQSVAELVRPGASVKLSCTASGFNIKNIFVHWVKQRPEQGLEWIGKIDPANDNTKFAPNFQGKAAISADTSSNTAYLQLSSLTSEDTAIYYCASDSSGYDAVDYWGQGTSVTVSSAKTTAPSVYPLAPVCGDTTGSSVTLGCLVKGYFPEPVTLTWNSGSLSSGVHTFPAVLQSDLYTLSSSVTVTSSTWPSQSITCNVAHPASSTKVDKKIEPRGPTIKPCPPCKCPAPNLLGGPSVFIFPPKIKDVLMISLSPIVTCVVVDVSEDDPDVQISWFVNNVEVHTAQTQTHREDYNSTLRVVSALPIQHQDWMSGKEFKCKVNNKDLPAPIERTISKPKGSVRAPQVYVLPPPEEEMTKKQVTLTCMVTDFMPEDIYVEWTNNGKTELNYKNTEPVLDSDGSYFMYSKLRVEKKNWVERNSYSCSVVHEGLHNHHTTKSFSRTPGK
light: DIQMTQSPASLSASVGETVTITCRASESVYTYLAWYQQKQGKSPQLLVYNAKTLTEGVPSRFSGSGSGTQFSLRINSLQPEDFGSYYCQHHYGTPYTFGSGTKLEIKRADAAPTVSIFPPSSEQLTSGGASVVCFLNNFYPKDINVKWKIDGSERQNGVLNSWTDQDSKDSTYSMSSTLTLTKDEYERHNSYTCEATHKTSTSPIVKSFNRNEC
With B1 the “binding to surface localized NPM1” value [4] was “capable of binding”, the “binding to surface localized NPM1” value [5] was “capable of binding” and the “binding to NPM1 on PDX cells” value [6] was “bound”. For the same molecule, the “binding to host murine bone marrow cells” value [7] was “without binding”.

B2: Ab1 anti-NPM1 antibody (antibody, mouse IgG2a, kappa, V domains shown)
VH: EVQLQQSVAELVRPGASVKLSCTASGFNIKNIFVHWVKQRPEQGLEWIGKIDPANDNTKFAPNFQGKAAISADTSSNTAYLQLSSLTSEDTAIYYCASDSSGYDAVDYWGQGTSVTVSS
VL: DIQMTQSPASLSASVGETVTITCRASESVYTYLAWYQQKQGKSPQLLVYNAKTLTEGVPSRFSGSGSGTQFSLRINSLQPEDFGSYYCQHHYGTPYTFGSGTKLEIKR
notes: also called isolated anti-WT NPM1 antibody
B2: binds [8]; binds (murine NPM1).
